{"source": "patent US7351720B2", "about": "“N-ureidoalkyl-piperidines as modulators of chemokine receptor activity” (Bristol-Myers Squibb Company, priority 2003, dated 2008)"}
{"compound": "CC(=O)N(C)[C@@H]1CC[C@@H](NC(=O)Nc2nc(C)cs2)[C@H](CN2CCC[C@@H](Cc3ccc(F)cc3)C2)C1", "note": "[Example 1, N-{(3S,4R)-3-[3S-(4-Fluorobenzyl)-piperidin-1-ylmethyl]-4-[3-(4-methyl-thiazol-2-yl)-ureido]-(R)-cyclohexyl}-N-methyl-acetamide]", "values": [{"measurement": "melting point", "value": 191, "unit": "°C"}]}
